COc1cccc2c1-c1cccc(C)c1C(NS(C)(=O)=O)(c1cccc(C(F)(F)F)c1)O2 (stereo not shown) [Example 1, N-[1-methoxy-7-methyl-6-[3-(trifluoromethyl)phenyl]-6H-dibenzo[b,d]pyran-6-yl]methanesulfonamide]
melting point: 217 to 218 °C

From patent US6436986B1, “Glucocorticoid receptor antagonists for treatment of diabetes” (Abbott Laboratories, priority 1999, dated 2002)
